Results taken from patent US20250361307A1, “COMBINATION THERAPIES FOR TREATING HYPERPROLIFERATIVE DISORDERS” (X4 Pharmaceuticals, Inc., priority 2022, published 2025).

Columns and labels:
BCL-2 = BCL-2 (Homo sapiens, UniProt P10415); conditions: cited from earlier work
BCL-XL = BCL-XL (Homo sapiens, UniProt Q07817); conditions: cited from earlier work
BCL-w = biological target: T1, BCL-w (Homo sapiens, UniProt Q92843); conditions: cited from earlier work
T1 sequence (Q92843 1-193): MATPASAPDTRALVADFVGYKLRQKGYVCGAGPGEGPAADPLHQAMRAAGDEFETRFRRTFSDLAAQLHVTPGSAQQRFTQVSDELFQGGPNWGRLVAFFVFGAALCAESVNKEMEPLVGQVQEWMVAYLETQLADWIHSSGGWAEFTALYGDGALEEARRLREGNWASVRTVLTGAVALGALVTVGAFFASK

MWCL-1 cells [1] = test: IL-6-mediated IgM secretion in MWCL-1 cells (ELISA); format: cell-based; conditions: exogenous IL-6 (FIG. 1F)
Text: (§1) The IgM levels were quantitated using a human IgM Enzyme-linked immunosorbent assay (ELISA) kit (Abcam, #ab214568) according to the manufacturer's instructions. IL-6 levels were quantitated using an IL-6 ELISA MAX™ kit (BioLegend, #430515) per manufacturer's recommendations. For all ELISA kits, plates were developed with 3,3′,5,5′-tetramethylbenzidine (TMB) development solution or a biotinylated antihuman IL-6 detection antibody/avidin horseradish peroxidase (HRP) solution. The reaction was stopped with the stop solution, and absorbance was read at 450 nm with a microplate reader (Synergy™ HT, BioTek Instruments).

MWCL-1 cells [2] = test: Apoptosis of MWCL-1 cells in monoculture (Annexin V flow cytometry); format: cell-based
Procedure: BMSCs were cultured in 96-, 48-, or 24-well plates until 90% confluence. […] Cells were coincubated for 48 or 72 hours followed by measurement of cell viability, apoptosis, IgM, and IL-6 release.
(§2) Cells were washed with PBS, resuspended in Annexin V binding buffer (BioLegend, #422201), and stained with Alexa Fluor® 647 Annexin V (BioLegend, #640943), propidium iodide (BD Pharmingen, #51-66211E), and CD45 antibody (BioLegend, #368502) for 15 minutes at room temperature and analyzed by flow cytometry.

MWCL-1 cells [3] = test: Apoptosis of MWCL-1 cells in coculture with HS-27A BMSCs; format: cell-based; conditions: for % apoptotic cells: with BMSC (HS-27a) (FIG. 13A)
Procedure: (§3) BMSCs were cultured in 96-, 48-, or 24-well plates until 90% confluence. MWCL-1 cells (density≈2×10^5 cells/mL) were pretreated with indicated concentration of mavorixafor together with indicated concentrations of B-cell-targeted inhibitors in medium containing 4% FBS for 1 hour and transferred to the BMSC monolayer. Cells were coincubated for 48 or 72 hours followed by measurement of cell viability, apoptosis, IgM, and IL-6 release.
as §2

MWCL-1 cells [4] = test: Sensitivity of MWCL-1 cells in coculture with HS-5 BMSCs (apoptosis, IgM); format: cell-based; conditions: HS-5 BMSC coculture vs monoculture (FIG. 10A-D)
Procedure: as §3, §1, §2

ALL cells = conditions: cited from earlier work
MWCL-1 cells [5] = test: Cell viability of MWCL-1 cells (CellTiter-Glo); format: cell-based; conditions: tested concentrations, 4 hours, data not shown
[6] = tested on: cleavage of caspase-3 and PARP in MWCL-1 cells; test: Immunoblotting of apoptotic markers; format: cell-based; conditions: MWCL-1 monoculture (FIG. 4G)
Procedure: Whole cells were lysed by radioimmunoprecipitation assay (RIPA) lysis buffer (Sigma-Aldrich, #R0278) with protease inhibitor cocktail (Roche Custom Biotech, #11697498001). Lysates were separated by sodium dodecyl sulfate polyacrylamide gel-electrophoresis (SDS-PAGE) electrophoresis and transferred to Trans-Blot® Turbo™ Mini PVDF Transfer Packs (Bio-Rad). Membranes were incubated with primary antibodies: anti-poly adenosine diphosphate (ADP)-ribose polymerase (PARP) (1:1000, Cell Signaling, #9542); Anti-Caspase 3 (1:1000, Cell Signaling, #9662) and antitubulin (1:5000, R&D, #MAB9344). Secondary HRP-conjugated antibodies (Abcam) were used at 1:10.000 dilution. Membranes were developed with enhanced chemiluminescence reagent (Amersham™ ECL Prime Western Blotting Detection Reagent, GE Healthcare) on LAS4000 gel documentation system.

MWCL-1 cells [7] = test: Adhesion assay of MWCL-1 cells to BMSC monolayer; format: cell-based; conditions: pretreatment, 4 hours (FIG. 3A)
Procedure: MWCL-1 cells were labeled with 1 μM Calcein AM. After 10 minutes at 37° C., cells were washed, resuspended in medium containing 1% FBS, and treated with compounds for 30 minutes (2.25× 10^5 cells/mL). MWCL-1 cells were transferred to the BMSC monolayer. After 4 hours, nonadherent cells were removed by gently washing with phosphate-buffered saline (PBS). Remaining cells were harvested, resuspended in flow buffer (Hanks balanced salt solution+20 mM HEPES+0.5% […]) and analyzed by flow cytometry.

[8] = patients with WHIM syndrome; cited from earlier work
[9] = Terminal half-life of mavorixafor; conditions: in vivo
MWCL-1 cells [10] = test: BMSC-induced IgM hypersecretion, MWCL-1/HS-27A coculture (ELISA); format: cell-based
Procedure: as §1, with “BMSCs were cultured in 96-, 48-, or 24-well plates until 90% confluence. […] Cells were coincubated for 48 or 72 hours followed by measurement of cell viability, apoptosis, IgM, and IL-6 release. The IgM” for “The IgM”

HS-27A and HS-5 BMSCs = test: Apoptosis of BMSCs cocultured with WM cells; format: cell-based; conditions: WM cell-BMSC coculture, mavorixafor alone (FIG. 11A-B)
Procedure: as §2, with “BMSCs were cultured in 96-, 48-, or 24-well plates until 90% confluence. […] Cells were coincubated for 48 or 72 hours followed by measurement of cell viability, apoptosis, IgM, and IL-6 release. Cells” for “Cells”

[11] = tested on: CXCL12-induced Ca2+ mobilization in MWCL-1 cells; test: Calcium mobilization assay (Fluo-4 AM); format: cell-based; conditions: dose-dependent (FIG. 3D)
Procedure: MWCL-1 cells (2×10^5 cells/well) were seeded in transparent bottom, black 96-well plates coated with poly-L-lysine (BioCoat®, Corning) and serum-starved (medium with 1% FBS) for 24 hours. Medium was removed and cells were loaded with 100 μL of fluo-4 AM (3 μM, Invitrogen, #F14201) dye solution for 45 minutes at 37° C. Subsequently, 100 μL of assay buffer alone or assay buffer with compound dilutions was added, and the plates were equilibrated in the plate reader for an additional 20 minutes at 37° C. The CXCL12 was injected with simultaneous measurement of fluorescent signal (FlexStation® 3 Multi-Mode Microplate Reader, Molecular Devices). Raw traces were analyzed in SoftMax®Pro 7 Software (Molecular Devices). The arbitrary units were calculated as the difference between maximal and minimal signal after treatment injection, normalized to the baseline signal before injection.

[12] = Solubility of mavorixafor; format: physicochemical
MWCL-1 cells [13] = test: Transwell migration assay; format: cell-based
Procedure: Cell migration toward CXCL12 gradient or BMSC monolayer was determined using the Transwell migration assay. MWCL-1 cells were stained with 500 nM Calcein AM (Invitrogen, #C1430) and preincubated with mavorixafor for 15 minutes before transfer (5×10^5 cells) to an upper well of a […] pore size Transwell® (Corning, #3421). […] Wells without CXCL12 were treated with 10 μM LIT-927 (Selleck Chemicals, #S8813), a neutraligand of CXCL12, to serve as background control. After 4 hours of incubation, cells that migrated to the lower chambers were collected and resuspended in Dulbecco's phosphate-buffered saline (DPBS) containing Precision Count Beads™ (BioLegend, #424902). Migrated cells and counting beads were counted by flow cytometry

WM cell-BMSC coculture = test: IL-6 release in WM/BMSC coculture model (ELISA); format: cell-based; conditions: WM cell-BMSC coculture (FIG. 12)
Procedure: as §1, with “BMSCs were cultured in 96-, 48-, or 24-well plates until 90% confluence. […] Cells were coincubated for 48 or 72 hours followed by measurement of cell viability, apoptosis, IgM, and IL-6 release. The IgM” for “The IgM”

BTK = biological target: T2, BTK (Homo sapiens, UniProt Q06187); conditions: patients with relapsed/refractory CLL and other B-cell disorders; cited from earlier work
T2 construct: endogenous in cells

WM mouse xenograft = conditions: cited from earlier work
[14] = tested on: CXCR4 cell surface expression in MWCL-1 cells; test: CXCR4 cell surface expression in MWCL-1 cells (flow cytometry); format: cell-based; conditions: MWCL-1 cocultured with HS-27A BMSCs (FIG. 2B)
Procedure: Flow experiments were performed with the CytoFLEX S Flow Cytometer (Beckman Coulter). Samples were analyzed using FCS Express Software (De Novo Software).
[…] Cells were stained with CXCR4 antibody (BD Pharmigen, #555976) and measured by flow cytometry.

human WM cells = conditions: mouse, in vivo; cited from earlier work
[15] = absence of bone marrow stroma, 72 hours (FIG. 15)

T2 sequence (Q06187 whole entry): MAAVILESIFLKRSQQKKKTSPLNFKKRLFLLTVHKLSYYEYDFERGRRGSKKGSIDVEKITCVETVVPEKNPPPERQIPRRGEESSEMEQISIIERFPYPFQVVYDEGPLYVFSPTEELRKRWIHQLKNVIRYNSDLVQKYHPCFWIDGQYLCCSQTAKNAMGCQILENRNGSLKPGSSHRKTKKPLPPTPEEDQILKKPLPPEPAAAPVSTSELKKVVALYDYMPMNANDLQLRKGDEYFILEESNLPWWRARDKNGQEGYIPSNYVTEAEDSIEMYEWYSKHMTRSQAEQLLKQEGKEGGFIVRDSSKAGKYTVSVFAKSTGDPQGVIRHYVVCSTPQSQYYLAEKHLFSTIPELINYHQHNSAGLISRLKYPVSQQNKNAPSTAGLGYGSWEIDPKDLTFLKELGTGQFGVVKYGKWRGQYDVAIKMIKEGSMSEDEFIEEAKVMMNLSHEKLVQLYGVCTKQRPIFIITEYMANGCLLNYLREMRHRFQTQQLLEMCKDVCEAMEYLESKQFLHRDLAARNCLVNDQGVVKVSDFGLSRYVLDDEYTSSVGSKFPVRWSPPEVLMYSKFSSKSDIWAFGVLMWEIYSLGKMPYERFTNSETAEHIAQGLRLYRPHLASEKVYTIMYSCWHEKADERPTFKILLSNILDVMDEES
BCL-2, sequence (P10415 whole entry): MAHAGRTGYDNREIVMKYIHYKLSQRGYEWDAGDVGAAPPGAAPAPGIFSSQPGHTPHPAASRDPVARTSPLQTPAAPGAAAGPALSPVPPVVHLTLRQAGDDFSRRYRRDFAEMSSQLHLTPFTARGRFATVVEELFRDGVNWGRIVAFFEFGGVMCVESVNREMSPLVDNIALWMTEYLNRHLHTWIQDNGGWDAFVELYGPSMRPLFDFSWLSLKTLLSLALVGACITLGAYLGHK
BCL-XL, sequence (Q07817 whole entry): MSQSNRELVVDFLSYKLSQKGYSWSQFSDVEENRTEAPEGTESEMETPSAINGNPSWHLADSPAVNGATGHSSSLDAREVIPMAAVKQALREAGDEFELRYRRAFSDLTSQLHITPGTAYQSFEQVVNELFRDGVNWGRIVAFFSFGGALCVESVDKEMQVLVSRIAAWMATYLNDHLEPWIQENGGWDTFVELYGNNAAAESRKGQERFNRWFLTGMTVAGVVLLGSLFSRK

In the case of `CN(C)CC[C@H](CSc1ccccc1)Nc1ccc(S(=O)(=O)NC(=O)c2ccc(N3CCN(Cc4ccccc4-c4ccc(Cl)cc4)CC3)cc2)cc1[N+](=O)[O-]` [ABT-737], the “binding affinity to BCL-2” value (BCL-2) is listed as less than 1 nmol/L, the “binding affinity to BCL-XL” value (BCL-XL) is listed as less than 1 nmol/L and the “binding affinity to BCL-w” value (BCL-w) is listed as less than 1 nmol/L.
With `CN(CC(=O)N(Cc1ccc(C2CCCCC2)cc1)c1ccc(C(=O)O)c(O)c1)S(=O)(=O)c1c(F)c(F)c(F)c(F)c1F` [BP-1-102] the “IL-6-mediated IgM secretion” value (MWCL-1 cells [1]) was “inhibited”.
In the case of `C=CC(=O)N1CCC[C@@H](n2nc(-c3ccc(Oc4ccccc4)cc3)c3c(N)ncnc32)C1` [Ibrutinib, 1-[(3R)-3-[4-amino-3-(4-phenoxyphenyl)-1Hpyrazolo[3,4-d]pyrimidin-1-yl]-1-piperidinyl]-2-propen-1-one, reference compound], the “% apoptotic cells” value (MWCL-1 cells [2]; absence of BMSC (FIG. 13A)) is reported as “approximately 60%”, the “% apoptotic cells” value (MWCL-1 cells [3]) is reported as “neither Ibrutinib nor Tocilizumab as a single therapy increased” and the “sensitivity of MWCL-1 cells to the drug in HS-5 BMSC coculture” value (MWCL-1 cells [4]) is reported as “reduced the sensitivity”.
For `CC(C)C[C@H](NC(=O)CNC(=O)c1cc(Cl)ccc1Cl)B(O)O` [Ixazomib, reference compound], the “killing / apoptosis of MWCL-1 tumor cells” value (MWCL-1 cells [2]; [15]) was “Kills”.
In the case of `NCCCCN(Cc1nc2ccccc2[nH]1)[C@H]1CCCc2cccnc21` [Mavorixafor], the “apoptosis efficacy of ixazomib when mavorixafor is added” value (MWCL-1 cells [2]; [15]) is reported as “Enhances”, the “apoptosis of MWCL-1 cells, single agent” value (MWCL-1 cells [2]; monoculture (FIG. 8A-F, FIG. 4A-F)) is reported as “minor increase” and the “sensitivity of MWCL-1 cells to apoptosis by B-cell-targeted inhibitors in presence of BMSCs” value (MWCL-1 cells [3]; HS-27A BMSC coculture (FIG. 5A-F)) is reported as “restored the sensitivity”. The “CXCL12-induced signaling pathway in ALL cells” value (ALL cells) was “effectively block”, the “preestablished adhesion of ALL cells to stroma” value (ALL cells) was “disrupt” and the “sensitivity of ALL cells to vincristine and nilotinib” value (ALL cells) was “increase sensitivity”. The “stromal-induced migration of ALL cells” value (ALL cells) was “block”, the “cytotoxicity in MWCL-1 cells” value (MWCL-1 cells [5]) was “not sufficient to induce cytotoxicity” and the “proteolytic cleavage of caspase-3 and PARP” value [6] was “minor effects”. The “adhesion of WM cells to BMSCs” value (MWCL-1 cells [7]) was “dose-dependent decrease”, the “tolerability, treatment-related serious adverse events” value [8] was “well tolerated, with no treatment-related serious adverse events” and the half-life [9] was 12 to 24 h. The “BM stroma-induced IgM hypersecretion, combination with ixazomib” value (MWCL-1 cells [10]; BMSC: HS-27A cells, 72 hours (FIG. 16)) was “Synergizes”, the “BMSC-induced IgM hypersecretion” value (MWCL-1 cells [10]; HS-27A coculture, 48 or 72 hours (FIG. 6A-G)) was “inhibited” and the “apoptosis of BMSCs” value (HS-27A and HS-5 BMSCs) was “much weaker effects”. The “CXCL12-mediated Ca2+ mobilization” value [11] was “blocked”, the solubility ([12]; aqueous buffer, pH range 3.0 to 8.0) was greater than 100 mg/mL and the “Solubility in water” value ([12]; water) was “only slightly soluble”. The “migration toward BMSC-secreted CXCL12” value (MWCL-1 cells [13]; HS-27A BMSCs in lower chamber (FIG. 3C)) was “significantly inhibited”, the “migration toward a CXCL12 gradient” value (MWCL-1 cells [13]; pretreatment of MWCL-1 cells (FIG. 3B)) was “significantly inhibited” and the IL-6 release (WM cell-BMSC coculture) was “no significant effect”.
For `NC(=O)c1ncc(N2CCCCC2)nc1Nc1ccc(C2CCN(C[C@H]3CCN(c4ccc5c(c4)C(=O)N(C4CCC(=O)NC4=O)C5=O)C3)CC2)cc1` (stereo partly shown) [NX-2127], the “degradation of BTK” value (BTK) is listed as “clinically meaningful degradation”.
With `CCc1cc(O)c(F)cc1-c1ccc2c(-c3nc4c([nH]3)CCN(C(=O)c3cnc(N5CCCCC5)cn3)C4)n[nH]c2c1` [PF-06263276] the “IL-6-mediated IgM secretion” value (MWCL-1 cells [1]) was “inhibited”.
For “Tocilizumab: IL-6R antibody tocilizumab (Actemra, Genentech)”, the “% apoptotic cells” value (MWCL-1 cells [3]) is given as “neither Ibrutinib nor Tocilizumab as a single therapy increased”, the IgM secretion (WM mouse xenograft) is given as “reduces” and the tumor growth (WM mouse xenograft) is given as “reduces”. The “IL-6-mediated IgM secretion” value (MWCL-1 cells [1]) was “inhibited” and the “increase of CXCR4 surface expression by HS-27A BMSC coculture” value [14] was “inhibited”.
For “ulocuplumab: monoclonal anti-CXCR4 antibody”, the “tumor infiltration in BM, spleen, and lymph nodes” value (human WM cells) is listed as “reduced”.
